Results published in patent publication US20230295109A1, “PYRIDINONE COMPOUNDS FOR THE TREATMENT OF AUTOIMMUNE DISEASE” (F. Hoffmann-La Roche AG, priority 2020, published 2023).

Each molecule was assayed against T1, TLR9 (Homo sapiens, UniProt Q9NR96) (assay: HEK293-Blue-hTLR-9 cells assay). Details: HEK293-Blue-hTLR9 cells, ODN2006 stimulation, 20 hrs, SEAP reporter; read-out: HEK/hTLR9 IC50.
T1 sequence (Q9NR96 26-1032): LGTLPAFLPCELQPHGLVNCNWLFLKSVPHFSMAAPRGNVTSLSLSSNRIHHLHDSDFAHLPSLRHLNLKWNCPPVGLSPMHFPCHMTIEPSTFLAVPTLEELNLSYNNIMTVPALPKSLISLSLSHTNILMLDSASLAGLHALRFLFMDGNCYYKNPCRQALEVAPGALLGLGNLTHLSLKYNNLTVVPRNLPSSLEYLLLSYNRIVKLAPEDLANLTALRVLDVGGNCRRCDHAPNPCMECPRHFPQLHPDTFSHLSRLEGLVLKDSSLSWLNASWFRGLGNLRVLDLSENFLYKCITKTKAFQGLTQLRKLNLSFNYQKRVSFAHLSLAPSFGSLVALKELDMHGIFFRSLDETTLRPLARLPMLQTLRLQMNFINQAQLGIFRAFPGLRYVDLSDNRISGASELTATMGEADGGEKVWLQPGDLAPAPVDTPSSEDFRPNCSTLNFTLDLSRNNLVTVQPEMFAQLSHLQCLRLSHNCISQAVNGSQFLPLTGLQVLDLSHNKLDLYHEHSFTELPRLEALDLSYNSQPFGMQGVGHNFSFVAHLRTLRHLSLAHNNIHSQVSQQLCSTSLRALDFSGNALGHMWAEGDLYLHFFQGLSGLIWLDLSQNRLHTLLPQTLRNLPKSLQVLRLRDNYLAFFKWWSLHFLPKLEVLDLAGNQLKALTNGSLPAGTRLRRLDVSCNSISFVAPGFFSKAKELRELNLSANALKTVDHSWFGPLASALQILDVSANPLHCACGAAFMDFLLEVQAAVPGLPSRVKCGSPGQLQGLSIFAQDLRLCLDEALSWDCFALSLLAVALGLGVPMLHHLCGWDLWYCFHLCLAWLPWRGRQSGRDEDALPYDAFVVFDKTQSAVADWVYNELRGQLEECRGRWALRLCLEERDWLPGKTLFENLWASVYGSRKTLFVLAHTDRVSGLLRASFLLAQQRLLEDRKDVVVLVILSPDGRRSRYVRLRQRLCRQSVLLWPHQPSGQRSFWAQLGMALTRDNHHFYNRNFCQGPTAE
Assay type: cell-based
Parameters: host or cells: HEK293 (HEK-Blue hTLR9)
From the text: A stable HEK293-Blue-hTLR-9 cell line was purchased from InvivoGen (Cat.#: hkb-htlr9, San Diego, California, USA). These cells were originally designed for studying the stimulation of human TLR9 by monitoring the activation of NF-κB. A SEAP (secreted embryonic alkaline phosphatase) reporter gene was placed under the control of the IFN-β minimal promoter fused to five NF-κB and AP-1-binding sites. The SEAP was induced by activating NF-κB and AP-1 via stimulating HEK-Blue hTLR9 cells with TLR9 ligands. Therefore the reporter expression was declined by TLR9 antagonist under the stimulation of a ligand, such as ODN2006 (Cat.#: tlrl-2006-1, Invivogen, San Diego, California, USA), for incubation of 20 hrs. The cell culture supernatant SEAP reporter activity was determined using QUANTI-Blue™ kit (Cat.#: rep-qb1, Invivogen, San Diego, California, USA) at a wavelength of 640 nm, a detection medium that turns purple or blue in the presence of alkaline phosphatase.
HEK293-Blue-hTLR9 cells were incubated at a density of 250,000~450,000 cells/mL in a volume of 170 µL in a 96-well plate in Dulbecco’s Modified Eagle’s medium (DMEM) containing 4.5 g/L glucose, 50 U/mL penicillin, […], […], 2 mM L-glutamine, 10% (v/v) heat-inactivated fetal bovine serum with addition of 20 µL test compound in a serial dilution in the presence of final DMSO at 1% and 10 µL of 20uM ODN2006 in above DMEM, perform incubation under 37° C. in a CO2 incubator for 20 hrs. Then 20 µL of the supernatant from each well was incubated with 180 µL Quanti-blue substrate solution at 37° C. for 2 h and the absorbance was read at 620 \~655 nm using a spectrophotometer. The signaling pathway that TLR9 activation leads to downstream NF-κB activation has been widely accepted, and therefore similar reporter assay was modified for evaluating TLR9 antagonist.
For `CCc1nc(N2CCN(Cc3cnc(N4CC5(CNCCO5)C4)nc3)CC2)ccc1-c1cc(C)c(=O)n(C)c1` [Example 1, 5-[2-ethyl-6-[4-[[2-(5-oxa-2,8-diazaspiro[3.5]nonan-2-yl)pyrimidin-5-yl]methyl]piperazin-1-yl]-3-pyridyl]-1,3-dimethyl-pyridin-2-one], the IC50 was 700 nM.
Work on `CCc1nc(N2CCN(Cc3ccc(N4CC5(CNCCO5)C4)nc3)CC2)ccc1-c1cc(C)c(=O)n(C)c1` [Example 2, 5-[2-ethyl-6-[4-[[6-(5-oxa-2,8-diazaspiro[3.5]nonan-2-yl)-3 pyridyl]methyl]piperazin-1-yl]-3-pyridyl]-1,3-dimethyl-pyridin-2-one] yielded an IC50 of 212 nM.
Work on `CCc1nc(N2CCN(Cc3cnc(N4CC(C)(N)C4)nc3)CC2)ccc1-c1cc(C)c(=O)n(C)c1` [Example 3, 5-[6-[4-[[2-(3-amino-3-methyl-azetidin-1-yl)pyrimidin-5-yl]methyl]piperazin-1-yl]-2-ethyl-3-pyridyl]-1,3-dimethyl-pyridin-2-one] yielded an IC50 of 621 nM.
Work on `CCc1nc(N2CCN(Cc3cnc(N4CCOC[C@@H](N)C4)nc3)CC2)ccc1-c1cc(C)c(=O)n(C)c1` [Example 4, 5-[6-[4-[[2-[(6S)-6-amino-1,4-oxazepan-4-yl]pyrimidin-5-yl]methyl]piperazin-1-yl]-2-ethyl-3-pyridyl]-1,3-dimethyl-pyridin-2-one] yielded an IC50 of 318 nM.
With `CCc1nc(N2CCN(Cc3ccc(N4CCNCC4)cc3)CC2)ccc1-c1cc(C)c(=O)n(C)c1` [Example 5, 5-[2-ethyl-6-[4-[(4-piperazin-1-ylphenyl)methyl]piperazin-1-yl]-3-pyridyl]-1,3-dimethyl-pyridin-2-one] the IC50 was 54 nM.
`Cc1cc(-c2ccc(N3CCN(Cc4cnc(N5CC6(CNCCO6)C5)nc4)CC3)nc2C(C)C)cn(C)c1=O` [Example 6, 5-[2-isopropyl-6-[4-[[2-(5-oxa-2,8-diazaspiro[3.5]nonan-2-yl)pyrimidin-5-yl]methyl]piperazin-1-yl]-3-pyridyl]-1,3-dimethyl-pyridin-2-one] gave an IC50 of 198 nM.
`Cc1cc(-c2ccc(N3CCN(Cc4ccc(N5CCNCC5)cn4)CC3)nc2C(C)C)cn(C)c1=O` [Example 7, 5-[2-isopropyl-6-[4-[(5-piperazin-1-yl-2-pyridyl)methyl]piperazin-1-yl]-3-pyridyl]-1,3-dimethyl-pyridin-2-one] was tested, and the IC50 was 143 nM.
With `Cc1cc(-c2ccc(N3CCN(Cc4cnc(N5CCNCC5)cn4)CC3)nc2C(C)C)cn(C)c1=O` [Example 8, 5-[2-isopropyl-6-[4-[(5-piperazin-1-ylpyrazin-2-yl)methyl]piperazin-1-yl]-3-pyridyl]-1,3-dimethyl-pyridin-2-one] the IC50 was 176 nM.
Work on `Cc1cc(-c2ccc(N3CCN(Cc4cnc(N5CCNCC5)nc4)CC3)nc2C(C)C)cn(C)c1=O` [Example 9, 5-[2-isopropyl-6-[4-[(2-piperazin-1-ylpyrimidin-5-yl)methyl]piperazin-1-yl]-3-pyridyl]-1,3-dimethyl-pyridin-2-one] yielded an IC50 of 183 nM.
Work on `Cc1cc(-c2ccc(N3CCN(Cc4cnc(N5CC(C)(N)C5)nc4)CC3)nc2C(C)C)cn(C)c1=O` [Example 10, 5-[6-[4-[[2-(3-amino-3-methyl-azetidin-1-yl)pyrimidin-5-yl]methyl]piperazin-1-yl]-2-isopropyl-3-pyridyl]-1,3-dimethyl-pyridin-2-one] yielded an IC50 of 139 nM.
Molecule `Cc1cc(-c2ccc(N3CCN(Cc4ccc(N5CCNCC5)nc4)CC3)nc2C(C)C)cn(C)c1=O` [Example 11, 5-[2-isopropyl-6-[4-[(6-piperazin-1-yl-3-pyridyl)methyl]piperazin-1-yl]-3-pyridyl]-1,3-dimethyl-pyridin-2-one] has an IC50 of 136 nM.
For `Cc1cc(-c2ccc(N3CCN(Cc4ncc(N5CCNCC5)cn4)CC3)nc2C(C)C)cn(C)c1=O` [Example 12, 5-[2-isopropyl-6-[4-[(5-piperazin-1-ylpyrimidin-2-yl)methyl]piperazin-1-yl]-3-pyridyl]-1,3-dimethyl-pyridin-2-one], the IC50 was 763 nM.
For `Cc1cc(-c2ccc(N3CCN(Cc4ccc(N5CCNCC5)cc4)CC3)nc2C(C)C)cn(C)c1=O` [Example 13, 5-[2-isopropyl-6-[4-[(4-piperazin-1-ylphenyl)methyl]piperazin-1-yl]-3-pyridyl]-1,3-dimethyl-pyridin-2-one], the IC50 was 111 nM.
`Cc1cc(-c2ccc(N3CCN(Cc4cccc(N5CCNCC5)c4)CC3)nc2C(C)C)cn(C)c1=O` [Example 14, 5-[2-isopropyl-6-[4-[(3-piperazin-1-ylphenyl)methyl]piperazin-1-yl]-3-pyridyl]-1,3-dimethyl-pyridin-2-one] was tested, and the IC50 was 143 nM.
`Cc1cc(-c2ccc(N3CCN(c4ccc5c(n4)CCNC5)CC3)nc2C(C)C)cn(C)c1=O` [Example 15, 5-[2-isopropyl-6-[4-(5,6,7,8-tetrahydro-1,6-naphthyridin-2-yl)piperazin-1-yl]-3-pyridyl]-1,3-dimethyl-pyridin-2-one] was tested, and the IC50 was 803 nM.
`Cc1cc(-c2ccc(N3CCN4CCN(c5ccc(N6CCNCC6)nc5)CC4C3)nc2C(C)C)cn(C)c1=O` (stereo not shown) [Example 16, 5-[2-isopropyl-6-[8-(6-piperazin-1-yl-3-pyridyl)-3,4,6,7,9,9a-hexahydro-1H-pyrazino[1,2-a]pyrazin-2-yl]-3-pyridyl]-1,3-dimethyl-pyridin-2-one] showed an IC50 of 324 nM.
With `Cc1cc(-c2ccc(N3CCN(Cc4ccc(N5CCNCC5)cc4)CC3)nc2C(F)F)cn(C)c1=O` [Example 17, 5-[2-(difluoromethyl)-6-[4-[(4-piperazin-1-ylphenyl)methyl]piperazin-1-yl]-3-pyridyl]-1,3-dimethyl-pyridin-2-one] the IC50 was 68 nM.
Work on `Cc1cc(-c2ccc(N3CCC(N4CCNCC4)CC3)nc2C(C)C)cn(C)c1=O` [Example 18, 5-[2-isopropyl-6-(4-piperazin-1-yl-1-piperidyl)-3-pyridyl]-1,3-dimethyl-pyridin-2-one] yielded an IC50 of 798 nM.
In the case of `CCc1nc(N2CCN3CCN(c4cnc(N5CC6(CNCCO6)C5)nc4)CC3C2)ccc1-c1cc(C)c(=O)n(C)c1` (stereo not shown) [Example 19, 5-[2-ethyl-6-[2-[2-(5-oxa-2,8-diazaspiro[3.5]nonan-2-yl)pyrimidin-5-yl]-3,4,6,7,9,9a-hexahydro-1H-pyrazino[1,2-a]pyrazin-8-yl]-3-pyridyl]-1,3-dimethyl-pyridin-2-one], the IC50 is reported as 833 nM.
